The results in this text go back to ChEMBL document CHEMBL1132929 (J Med Chem, 2000).

For orientation: EC50 means the concentration needed to bring the measured effect to its halfway point. Low values mean an effect from little substance, high ones a need for much substance.

Each structure is given as a SMILES string. Peptide text beside a SMILES is read from it.

The assay addresses Substance-P receptor (Rana catesbeiana). As to the kind of experiment: SP-induced [Ca2+] mobilization in CHO cells expressing bullfrog Tachykinin receptor 1.
Consider `CSCC[C@H](NC(=O)[C@H](CC(C)C)NC(=O)CNC(=O)[C@H](Cc1ccc(O)cc1)NC(=O)[C@H](Cc1ccccc1)NC(=O)[C@H](CO)NC(=O)[C@H](CC(=O)O)NC(=O)[C@H](CO)NC(=O)[C@H](CCCCN)NC(=O)[C@@H](N)Cc1ccc(O)cc1)C(N)=O` (H-YKSDSFYGLM-NH2), for which the EC50 turned out to be 14 nM.

The compound `CSCC[C@H](NC(=O)[C@H](CC(C)C)NC(=O)CNC(=O)[C@H](Cc1ccc(O)cc1)NC(=O)[C@H](Cc1ccccc1)NC(=O)[C@H](CCCNC(=N)N)NC(=O)[C@H](CC(=O)O)NC(=O)[C@@H]1CCCN1C(=O)[C@H](CO)NC(=O)[C@@H]1CCCN1C(=O)[C@@H](N)CCCCN)C(N)=O` (H-KPSPDRFYGLM-NH2) returned an EC50 of 0.6 nM. Against the preceding compound, the EC50 is about 23-fold lower.

In turn, `CC[C@H](C)[C@H](NC(=O)[C@H](Cc1ccccc1)NC(=O)[C@H](CO)NC(=O)[C@H](C)NC(=O)[C@@H]1CCCN1C(=O)[C@H](CC(N)=O)NC(=O)[C@@H](N)Cc1cnc[nH]1)C(=O)NCC(=O)N[C@@H](CC(C)C)C(=O)N[C@@H](CCSC)C(N)=O` (H-HNPASFIGLM-NH2) displayed an EC50 of 14 nM. Compared with the last compound, the EC50 is about 23-fold higher.
